Broadly, the EC50 is the concentration needed to bring the measured effect to its halfway point. For orientation: AC50 means the concentration at which the activity in the assay is half-maximal. For orientation: IC50 means the concentration that inhibits the measured activity by half.

The target of one assay is Troponin, cardiac muscle (Homo sapiens, UniProt P19429+P45379+P63316). The experiment in a line: Fluorescence-based biochemical high throughput dose response assay for activators of the calcium sensitivity of cardiac Regulated Thin Filaments (RTF). [Related pubchem assays (depositor defined):AID493008, AID493018, AID504382, AID504383]. It counts as protein-complex assay.

Assay [1] addresses T1, Short transient receptor potential channel 4 (Mus musculus, UniProt Q9QUQ5).
T1 sequence (Q9QUQ5 whole entry): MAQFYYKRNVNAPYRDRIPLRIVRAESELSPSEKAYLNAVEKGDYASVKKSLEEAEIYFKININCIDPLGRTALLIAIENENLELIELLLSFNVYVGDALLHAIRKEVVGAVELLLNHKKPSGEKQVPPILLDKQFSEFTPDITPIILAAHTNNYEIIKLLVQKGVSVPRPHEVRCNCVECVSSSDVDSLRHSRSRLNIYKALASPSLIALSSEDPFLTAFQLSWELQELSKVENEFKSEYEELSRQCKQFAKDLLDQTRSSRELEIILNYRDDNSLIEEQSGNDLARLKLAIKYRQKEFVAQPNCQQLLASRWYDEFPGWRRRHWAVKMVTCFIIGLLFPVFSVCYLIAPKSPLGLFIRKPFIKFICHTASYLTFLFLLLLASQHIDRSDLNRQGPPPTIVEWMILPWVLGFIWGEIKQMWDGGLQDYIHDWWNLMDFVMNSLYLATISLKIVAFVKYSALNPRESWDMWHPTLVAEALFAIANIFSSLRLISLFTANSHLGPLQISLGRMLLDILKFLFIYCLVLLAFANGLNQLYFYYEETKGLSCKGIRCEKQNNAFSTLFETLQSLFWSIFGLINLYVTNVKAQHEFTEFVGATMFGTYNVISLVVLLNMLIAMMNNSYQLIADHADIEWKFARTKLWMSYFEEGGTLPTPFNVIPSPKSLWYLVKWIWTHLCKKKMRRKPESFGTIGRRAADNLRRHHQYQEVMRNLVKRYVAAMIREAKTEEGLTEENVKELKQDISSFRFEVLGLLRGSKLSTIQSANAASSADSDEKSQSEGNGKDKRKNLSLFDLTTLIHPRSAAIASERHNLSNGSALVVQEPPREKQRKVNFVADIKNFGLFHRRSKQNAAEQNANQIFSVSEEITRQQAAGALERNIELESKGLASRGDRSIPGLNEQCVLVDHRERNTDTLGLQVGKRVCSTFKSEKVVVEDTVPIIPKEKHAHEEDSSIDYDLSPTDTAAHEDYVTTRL
The experiment in a line: calcium entry via TRPC4 opening agents – cell-based, HEK293 TRPC4/mu-opioid, Fluo-4 calcium, dose response (AID 434937). The class given is functional.

Assay [2] can be described thus: HPDE-C7 pancreatic duct cell viability loss – fluorescence, HTS (AID 430). It counts as functional, cell-based. The following applies: Homo sapiens.
Assay [3] in a line: viability loss of HPDE-C7K cells – cell-based, fluorescence, HTS, primary screen (AID 431). It counts as functional. The following applies: Homo sapiens.
The nature of assay [4]: viability of PTEN-deleted HCT116 cells – cell-based, HCT116 PTEN knockout, dose response (AID 1047).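 Further: HCT116 colon tumor cells with PTEN knocked out; cells exposed to compound for 60 hours before readout; potency for loss of cell viability measured by luminescence.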 It counts as functional.
Assay [5] in a line: viability of HCT116 lacking mutant beta-catenin – cell-based, human colon tumor, dose response (AID 1045).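 Further: HCT116 colon tumor cells with beta catenin knocked out; cells exposed to compound for 60 hours.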 The class given is functional.
The target of assay [6] is FAD-linked sulfhydryl oxidase ALR (Homo sapiens, UniProt P55789). The experiment in a line: ALR-catalysed DTT oxidation blockers – biochemical, H2O2 detection, luminescence, cherry-pick, dose response (AID 493248).
Chain of FAD-linked sulfhydryl oxidase ALR (P55789 whole entry): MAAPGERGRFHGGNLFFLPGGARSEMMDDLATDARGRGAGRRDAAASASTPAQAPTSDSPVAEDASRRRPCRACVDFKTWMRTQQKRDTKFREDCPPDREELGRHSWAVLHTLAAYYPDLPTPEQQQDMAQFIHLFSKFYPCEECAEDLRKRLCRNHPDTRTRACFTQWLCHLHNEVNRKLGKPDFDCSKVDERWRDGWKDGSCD
Assay [7] deals with DNA dC->dU-editing enzyme APOBEC-3G (Homo sapiens, UniProt Q9HC16). The experiment in a line: Dose Response confirmation of small molecule APOBEC3G DNA Deaminase Inhibitors via a fluorescence-based single-stranded DNA deaminase assay. [Related pubchem assays (depositor defined):AID493012, AID493028]. It counts as functional.
Chain of DNA dC->dU-editing enzyme APOBEC-3G (Q9HC16 whole entry): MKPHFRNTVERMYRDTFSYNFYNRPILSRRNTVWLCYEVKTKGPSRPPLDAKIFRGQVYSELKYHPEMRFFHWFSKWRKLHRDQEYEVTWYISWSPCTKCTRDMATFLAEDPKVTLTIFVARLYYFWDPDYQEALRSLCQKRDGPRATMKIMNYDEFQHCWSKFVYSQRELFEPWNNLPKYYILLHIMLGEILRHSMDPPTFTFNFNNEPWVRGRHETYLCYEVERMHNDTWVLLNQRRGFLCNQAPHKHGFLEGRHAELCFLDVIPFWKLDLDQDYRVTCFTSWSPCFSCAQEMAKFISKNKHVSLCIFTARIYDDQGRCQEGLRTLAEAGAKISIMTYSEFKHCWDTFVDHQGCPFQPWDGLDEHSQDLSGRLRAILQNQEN
A further assay has as its target Large T antigen (Simian virus 40, UniProt P03070). It counts as functional, Betapolyomavirus macacae.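 Further: Confirmatory-stage PubChem screen for compounds that inhibit SV40 T antigen.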
For assay [8], the target named is DNA dC->dU-editing enzyme APOBEC-3A (Homo sapiens, UniProt P31941). Briefly: A3A deaminase inhibition for selectivity – biochemical, dose response (AID 504722). It counts as functional.
Chain of DNA dC->dU-editing enzyme APOBEC-3A (P31941 whole entry): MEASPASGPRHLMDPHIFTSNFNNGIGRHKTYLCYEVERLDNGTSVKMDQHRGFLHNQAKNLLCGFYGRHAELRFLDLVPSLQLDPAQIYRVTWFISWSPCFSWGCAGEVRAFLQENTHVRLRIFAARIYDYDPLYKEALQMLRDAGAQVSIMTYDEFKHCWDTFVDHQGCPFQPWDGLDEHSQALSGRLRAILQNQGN
Assay [9] concerns the target T2, Acyl-homoserine lactone acylase PvdQ (Pseudomonas aeruginosa (strain LESB58), UniProt Q9I194).
T2 sequence (Q9I194 whole entry): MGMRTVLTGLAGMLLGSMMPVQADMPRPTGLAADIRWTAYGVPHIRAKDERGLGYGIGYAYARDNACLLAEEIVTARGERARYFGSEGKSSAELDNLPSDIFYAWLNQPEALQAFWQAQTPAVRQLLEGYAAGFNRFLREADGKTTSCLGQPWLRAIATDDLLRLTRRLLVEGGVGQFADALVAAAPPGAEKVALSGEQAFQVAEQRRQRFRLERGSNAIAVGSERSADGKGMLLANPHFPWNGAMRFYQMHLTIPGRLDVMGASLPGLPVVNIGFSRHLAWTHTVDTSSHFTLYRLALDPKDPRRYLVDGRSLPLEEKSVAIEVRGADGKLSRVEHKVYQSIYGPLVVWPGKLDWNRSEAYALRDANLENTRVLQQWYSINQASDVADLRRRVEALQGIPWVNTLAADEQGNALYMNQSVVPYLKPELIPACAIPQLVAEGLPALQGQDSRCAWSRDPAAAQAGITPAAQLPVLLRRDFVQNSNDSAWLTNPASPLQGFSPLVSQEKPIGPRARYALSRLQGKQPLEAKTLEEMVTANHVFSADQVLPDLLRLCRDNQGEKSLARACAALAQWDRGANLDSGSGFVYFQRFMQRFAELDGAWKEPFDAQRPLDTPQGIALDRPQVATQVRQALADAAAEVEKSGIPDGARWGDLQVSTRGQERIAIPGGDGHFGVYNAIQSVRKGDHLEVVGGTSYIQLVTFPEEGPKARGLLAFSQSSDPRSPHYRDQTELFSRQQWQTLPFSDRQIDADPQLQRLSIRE
The experiment in a line: PvdQ acylase enzyme activity blockers – biochemical, fluorescence, plate reader and imaging, cherry-picks, dose response (AID 493231).

In assay [10] the target is T3, High affinity choline transporter 1 (Homo sapiens, UniProt Q9GZV3).
T3 sequence (Q9GZV3 whole entry): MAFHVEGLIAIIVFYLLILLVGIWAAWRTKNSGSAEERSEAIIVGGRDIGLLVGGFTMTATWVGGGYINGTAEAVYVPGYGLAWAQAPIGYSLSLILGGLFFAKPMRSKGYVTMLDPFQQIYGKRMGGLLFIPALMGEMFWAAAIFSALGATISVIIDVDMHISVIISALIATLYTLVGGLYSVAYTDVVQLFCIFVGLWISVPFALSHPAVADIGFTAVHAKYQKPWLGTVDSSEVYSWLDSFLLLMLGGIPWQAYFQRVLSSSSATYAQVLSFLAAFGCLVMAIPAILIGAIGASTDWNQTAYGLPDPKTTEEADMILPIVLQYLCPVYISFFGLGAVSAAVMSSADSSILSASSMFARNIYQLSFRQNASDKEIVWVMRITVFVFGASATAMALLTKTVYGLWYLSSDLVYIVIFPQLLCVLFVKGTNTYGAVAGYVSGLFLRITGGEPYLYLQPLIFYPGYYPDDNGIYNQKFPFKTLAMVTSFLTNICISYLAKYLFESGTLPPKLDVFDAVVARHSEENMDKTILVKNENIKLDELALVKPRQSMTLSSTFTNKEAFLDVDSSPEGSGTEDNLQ
The experiment in a line: human choline transporter blockers, potency – cell-based, 5-point CRC, membrane potential dye, dose response (AID 504840). The class given is functional.

The target of assay [11] is T4, Estrogen receptor beta (Homo sapiens, UniProt Q92731). The experiment in a line: blockers of SRC-3 recruitment to ERβ – biochemical, ELISA, streptavidin-HRP readout, orthogonal assay, confirmation (AID 1060). For orientation: In an ELISA, binding on a coated surface is turned into a signal by an enzyme label.
T4 sequence (Q92731 whole entry): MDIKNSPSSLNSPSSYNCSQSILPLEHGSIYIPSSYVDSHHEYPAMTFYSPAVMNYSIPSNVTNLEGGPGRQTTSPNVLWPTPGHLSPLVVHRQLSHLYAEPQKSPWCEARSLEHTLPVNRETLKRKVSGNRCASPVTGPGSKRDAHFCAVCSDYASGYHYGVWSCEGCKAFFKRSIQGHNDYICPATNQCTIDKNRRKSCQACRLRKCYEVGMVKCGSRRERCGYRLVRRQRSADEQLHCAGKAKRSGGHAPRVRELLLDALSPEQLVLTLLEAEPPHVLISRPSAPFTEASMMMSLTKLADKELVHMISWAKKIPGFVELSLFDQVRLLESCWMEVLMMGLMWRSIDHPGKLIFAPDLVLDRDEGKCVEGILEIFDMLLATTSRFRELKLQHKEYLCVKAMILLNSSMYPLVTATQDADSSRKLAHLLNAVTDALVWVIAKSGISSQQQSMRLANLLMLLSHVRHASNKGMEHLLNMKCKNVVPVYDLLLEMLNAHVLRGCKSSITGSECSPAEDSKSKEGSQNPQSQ
Assay [12] addresses T4, Estrogen receptor beta.
A further assay concerns the target T5, Estrogen receptor (Homo sapiens, UniProt P03372).
T5 sequence (P03372 whole entry): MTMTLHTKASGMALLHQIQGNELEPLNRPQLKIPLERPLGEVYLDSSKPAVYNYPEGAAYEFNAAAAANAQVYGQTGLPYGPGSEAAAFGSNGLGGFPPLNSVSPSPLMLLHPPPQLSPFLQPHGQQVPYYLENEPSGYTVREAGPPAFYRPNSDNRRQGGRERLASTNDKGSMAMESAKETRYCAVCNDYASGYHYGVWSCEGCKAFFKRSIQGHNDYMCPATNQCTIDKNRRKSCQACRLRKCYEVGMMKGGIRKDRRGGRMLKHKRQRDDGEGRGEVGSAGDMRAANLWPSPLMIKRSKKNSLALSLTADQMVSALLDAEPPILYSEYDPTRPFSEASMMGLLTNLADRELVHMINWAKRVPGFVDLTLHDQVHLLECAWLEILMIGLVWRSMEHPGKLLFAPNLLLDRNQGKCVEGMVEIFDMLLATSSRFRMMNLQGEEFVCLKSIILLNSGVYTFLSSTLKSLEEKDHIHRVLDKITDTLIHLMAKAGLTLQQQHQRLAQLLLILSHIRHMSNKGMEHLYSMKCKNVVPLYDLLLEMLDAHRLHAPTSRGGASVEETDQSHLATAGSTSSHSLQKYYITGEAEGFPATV

The nature of assay [13]: NIH3T3 cell viability loss – ATP luminescence, mouse fibroblasts, counter-screen, dose response (AID 2010).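 Further: cells exposed to compound for about 90 hours before reading.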 The class given is functional, cell-based. On the technique in general: The purpose of a counterscreen is to sort out artefacts and off-target activity.
In assay [14] the target is T1, Short transient receptor potential channel 4. Briefly: block of DAMGO-driven TRPC4 calcium entry – cell-based, HEK293 TRPC4/mu-opioid, Fluo-4 calcium, dose response (AID 434942).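 Further: potency of inhibitors blocking the TRPC4 calcium response.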 It counts as functional.
A short description of assay [15]: Trypanosoma cruzi growth suppression in host cells – NIH3T3 host cells, beta-gal luminescence, confirmation (AID 2044).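 Further: intracellular parasites grown in NIH/3T3 mouse fibroblasts as host cells; luminescent beta-galactosidase reporter signal from transgenic T. cruzi replicating inside host cells; inhibitors lower the luminescence signal.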 It counts as functional, cell-based.
For assay [16], the target named is Voltage-dependent T-type calcium channel subunit alpha-1H (Homo sapiens, UniProt O95180). The class given is functional.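 Further: channel activity triggered by adding a high calcium stimulation buffer.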
Chain of Voltage-dependent T-type calcium channel subunit alpha-1H (O95180 whole entry): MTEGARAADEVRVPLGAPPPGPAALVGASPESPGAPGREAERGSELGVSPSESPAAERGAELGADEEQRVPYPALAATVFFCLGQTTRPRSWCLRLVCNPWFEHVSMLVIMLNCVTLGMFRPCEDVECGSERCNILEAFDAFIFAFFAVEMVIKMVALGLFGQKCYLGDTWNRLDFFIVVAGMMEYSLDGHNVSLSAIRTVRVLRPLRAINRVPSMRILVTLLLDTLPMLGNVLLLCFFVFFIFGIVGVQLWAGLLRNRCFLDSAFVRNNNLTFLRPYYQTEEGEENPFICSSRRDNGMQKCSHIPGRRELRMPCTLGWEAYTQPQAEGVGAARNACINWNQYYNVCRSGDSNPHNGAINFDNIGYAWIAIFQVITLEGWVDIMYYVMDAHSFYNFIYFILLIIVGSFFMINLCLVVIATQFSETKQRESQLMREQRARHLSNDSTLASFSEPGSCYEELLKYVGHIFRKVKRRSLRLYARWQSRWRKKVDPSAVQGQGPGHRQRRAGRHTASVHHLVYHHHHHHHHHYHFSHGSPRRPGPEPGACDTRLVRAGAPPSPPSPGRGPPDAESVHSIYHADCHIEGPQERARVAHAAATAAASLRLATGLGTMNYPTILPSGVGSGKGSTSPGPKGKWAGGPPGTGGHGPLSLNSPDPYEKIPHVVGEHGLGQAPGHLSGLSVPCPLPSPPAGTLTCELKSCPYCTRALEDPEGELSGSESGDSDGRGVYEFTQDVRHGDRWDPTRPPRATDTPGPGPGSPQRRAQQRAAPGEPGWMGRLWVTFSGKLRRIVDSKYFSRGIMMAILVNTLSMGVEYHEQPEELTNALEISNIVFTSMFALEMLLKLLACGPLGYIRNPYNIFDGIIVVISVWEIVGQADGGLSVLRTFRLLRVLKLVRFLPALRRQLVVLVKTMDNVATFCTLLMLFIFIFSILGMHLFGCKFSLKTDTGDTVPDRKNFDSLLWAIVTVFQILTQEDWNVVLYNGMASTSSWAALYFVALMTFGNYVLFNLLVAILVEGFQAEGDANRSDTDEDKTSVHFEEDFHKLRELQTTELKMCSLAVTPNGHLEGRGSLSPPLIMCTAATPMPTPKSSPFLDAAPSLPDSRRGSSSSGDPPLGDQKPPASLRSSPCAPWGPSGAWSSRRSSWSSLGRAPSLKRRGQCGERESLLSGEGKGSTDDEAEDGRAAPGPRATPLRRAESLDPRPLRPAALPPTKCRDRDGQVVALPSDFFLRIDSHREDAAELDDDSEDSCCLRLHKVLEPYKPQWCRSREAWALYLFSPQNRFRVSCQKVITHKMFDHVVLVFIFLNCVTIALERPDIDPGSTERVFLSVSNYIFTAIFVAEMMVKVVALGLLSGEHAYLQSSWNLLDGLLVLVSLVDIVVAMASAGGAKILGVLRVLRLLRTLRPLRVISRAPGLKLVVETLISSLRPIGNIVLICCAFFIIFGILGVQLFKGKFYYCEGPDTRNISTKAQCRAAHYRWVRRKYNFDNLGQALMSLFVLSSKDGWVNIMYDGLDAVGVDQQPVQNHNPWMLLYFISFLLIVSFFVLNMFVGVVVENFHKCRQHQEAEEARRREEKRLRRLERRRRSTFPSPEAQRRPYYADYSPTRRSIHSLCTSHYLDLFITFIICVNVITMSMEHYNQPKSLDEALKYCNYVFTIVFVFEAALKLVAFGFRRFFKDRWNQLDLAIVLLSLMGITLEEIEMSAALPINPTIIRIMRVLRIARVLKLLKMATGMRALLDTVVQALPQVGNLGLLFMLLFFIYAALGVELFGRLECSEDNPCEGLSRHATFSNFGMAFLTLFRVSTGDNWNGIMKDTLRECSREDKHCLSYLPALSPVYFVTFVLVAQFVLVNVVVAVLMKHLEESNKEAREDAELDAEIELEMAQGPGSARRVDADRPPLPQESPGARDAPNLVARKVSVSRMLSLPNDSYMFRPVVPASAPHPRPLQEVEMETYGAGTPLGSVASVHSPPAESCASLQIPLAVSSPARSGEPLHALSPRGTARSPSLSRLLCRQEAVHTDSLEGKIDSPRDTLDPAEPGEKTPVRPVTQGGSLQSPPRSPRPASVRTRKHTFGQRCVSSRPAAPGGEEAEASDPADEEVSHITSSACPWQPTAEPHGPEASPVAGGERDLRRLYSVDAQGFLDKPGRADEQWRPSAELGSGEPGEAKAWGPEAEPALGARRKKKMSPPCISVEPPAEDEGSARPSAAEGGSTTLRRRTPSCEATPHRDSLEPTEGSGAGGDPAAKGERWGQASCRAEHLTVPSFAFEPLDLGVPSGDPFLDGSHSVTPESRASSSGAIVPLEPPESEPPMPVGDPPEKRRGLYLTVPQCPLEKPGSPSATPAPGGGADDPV
The subject of another assay is Escherichia coli. Briefly: microbe, parasite or virus in culture.

Calls of active or inactive are those of the source. Bounds are passed on as bounds.

Chain of Large T antigen (P03070 whole entry): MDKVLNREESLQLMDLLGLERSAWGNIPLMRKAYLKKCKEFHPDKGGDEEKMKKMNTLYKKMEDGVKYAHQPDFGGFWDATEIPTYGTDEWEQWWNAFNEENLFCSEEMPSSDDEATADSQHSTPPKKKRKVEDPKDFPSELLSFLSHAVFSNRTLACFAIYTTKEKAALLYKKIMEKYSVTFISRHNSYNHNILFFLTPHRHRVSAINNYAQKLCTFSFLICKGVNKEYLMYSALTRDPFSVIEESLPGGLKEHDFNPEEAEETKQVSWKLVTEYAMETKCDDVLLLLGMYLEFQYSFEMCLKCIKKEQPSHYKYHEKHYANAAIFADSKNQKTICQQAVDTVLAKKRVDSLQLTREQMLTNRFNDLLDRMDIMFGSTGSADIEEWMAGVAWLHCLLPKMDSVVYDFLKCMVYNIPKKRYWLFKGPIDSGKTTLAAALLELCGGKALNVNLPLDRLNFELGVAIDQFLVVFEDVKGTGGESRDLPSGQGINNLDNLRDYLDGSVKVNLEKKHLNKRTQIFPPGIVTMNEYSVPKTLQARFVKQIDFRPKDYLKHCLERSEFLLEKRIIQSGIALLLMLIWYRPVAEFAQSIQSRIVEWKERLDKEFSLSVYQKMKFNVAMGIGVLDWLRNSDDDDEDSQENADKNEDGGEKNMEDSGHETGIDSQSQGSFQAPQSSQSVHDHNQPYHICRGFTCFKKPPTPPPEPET

Regarding `O=C(c1cnc2ccccc2n1)N1CCN(c2ccc(C(F)(F)F)cn2)CC1`, the EC50 on Troponin, cardiac muscle is > 71.4 µM (inactive).
On to `COc1c(C)cc(C(=O)C2CCCN(Cc3cccc4nccnc34)C2)cc1C` (stereo not given), for which, in assay [1], the EC50 is 3.35 µM (active).
Regarding `CCc1c(C)nc(SCC(=O)CC(=O)OC(C)C)c(C#N)c1C`, the EC50 in [2] was 7.84 µM (active); in assay [3] it was 10.7 µM (active).
Turning to `Oc1ccc(Br)cc1-c1nc2cnccn2c1NC1CCCC1`, the EC50 in assay [4] is 38.9 µM (active); in assay [2], 17.3 µM (active); in [3], 12.5 µM (active); in [5], 36.4 µM (active). In [6], the AC50 was 1.55 µM (active).
For the molecule `Fc1cccc(C2NCCc3[nH]cnc32)c1` (stereo not given), in assay [1], the EC50 is 3.76 µM (active).
With `O=c1c2c3c(sc2n2c(S)nnc2n1-c1ccccc1)CCC3`, the values for the IC50 (in assay [7]; on Large T antigen; in assay [8]) were 3.72 µM (active), 30.4 µM (active) and > 100 µM (inactive), respectively.
For `CCCNS(=O)(=O)c1ccc(OC)c(Cl)c1Cl`, in assay [9], the concentration at half-maximal activity (AC50) was 8.91 µM (active).
As to `Cn1c(S)nnc1-c1sc2ccccc2c1Cl`, the 50% inhibitory concentration (IC50) was 8.32 µM (active) in assay [10], 0.936 µM (active) in [7] and > 100 µM (inactive) in assay [8]. The AC50 in [6] is 12 µM (active).
As for `COc1ccc(NC2=NC(=O)S/C2=C\c2ccc(N(C)C)cc2)cc1`, the IC50 is 85.5 µM (not active) at Estrogen receptor beta [11], 12.7 µM (active) at Estrogen receptor beta [12] and 33.3 µM (not active) against Estrogen receptor. In addition, the EC50 at Troponin, cardiac muscle is 2.02 µM (active).
As for `Cn1cccc1C(C#N)c1cccc(F)c1C#N` (stereo not given), the AC50 in assay [9] is 4.57 µM (active).
On the same count and under the same terms, as for `O=[N+]([O-])c1ccc(N2CCCC2)nc1`, the figure is 5.4 µM (active).
Regarding `O=[N+]([O-])c1ccc(CN2CCN(Cc3c[nH]c4ccccc34)CC2)cc1`, the EC50 in “cells” is 0.249 µM (active); in assay [13], > 60 µM (not active); in [14] it was 5.96 µM (active); in assay [15] it was < 0.1 µM (active).
As for `C=CCc1ccc(OCC(O)CN2CCC(Cc3ccccc3)CC2)c(OC)c1` (stereo not given), the EC50 in [16] is 6.13 µM (active). The IC50 in [10] is 19.1 µM (active).
For the molecule `Cc1c(NC(=O)CSc2nnc(C(C)Oc3ccc(Cl)cc3)n2-c2ccccc2)c(=O)n(-c2ccccc2)n1C` (stereo not given), the concentration for half-maximal inhibition (IC50) in assay [10] was 13.8 µM (active).
Turning to `O=C(/C=C/c1cccs1)c1cc(Cl)ccc1O`, the concentration at half-maximal activity (AC50) in assay [9] was 4.67 µM (active).
As for `COc1ccc2[nH]c(SCCN(C)C)nc2c1`, in assay [1], the EC50 was 0.149 µM (active).
As for `O=C(Cn1cnc2c(cnn2-c2ccccc2)c1=O)Nc1ccc(S(=O)(=O)N2CCOCC2)cc1`, the EC50 at Troponin, cardiac muscle is > 71.5 µM (inactive).
For the molecule `COc1ccc2c(c1)c(C(O)CN1CCC(Cc3ccccc3)CC1)c(C)n2C` (stereo not given), the AC50 in the assay with Escherichia coli was 73.6 µM (active).
As for `N=c1n(Cc2ccccc2)c2ccccc2n1CC(O)COc1ccccc1` (stereo not given), the 50% effective concentration (EC50) in assay [16] was 2.6 µM (active); in assay [4] it was 9.02 µM (active); in assay [5] it was 6.96 µM (active); in assay [1], 0.267 µM (active). Also, in assay [10], the IC50 was 9.78 µM (active).

The record behind these values is ChEMBL document CHEMBL1201862, “PubChem BioAssay data set” (2004).
